Three compounds from patent US7745442B2, “Methods of reducing risk of infection from pathogens” (priority 2003, dated 2010) can be followed below.

In this assay the target is T1, airway epithelial sodium currents (sodium channel) in canine bronchial epithelia (Canis lupus familiaris, UniProt A0A8I3MKE6+A0A8I3Q679+Q95165).
T1 construct: endogenous in cells; host or cells: primary canine bronchial epithelial cells from freshly excised airways, cultured at air-liquid interface on Snapwell inserts
The experiment in a line: In vitro sodium channel blocking activity (short circuit current, Ussing chambers) in canine bronchial epithelia. The class given is cell-based. The conditions noted are these: potency in canine bronchial epithelia; for Fold Amiloride*: relative to amiloride (Formula III compounds), value ± spread. The protocol: One assay used to assess mechanism of action and/or potency of the compounds of (1), (II), and (HI) involves the determination of lumenal drug inhibition of airway epithelial sodium currents measured under short circuit current (ISC) using airway epithelial monolayers mounted in Ussing chambers. Cells obtained from freshly excised human, dog, sheep or rodent airways are seeded onto porous 0.4 micron Snapwell™ Inserts (CoStar), cultured at air-liquid interface (ALI) conditions in hormonally defined media, and assayed for sodium transport activity (ISC) while bathed in Krebs Bicarbonate Ringer (KBR) in Using chambers. All test drug additions are to the lumenal bath with half-log dose addition protocols (from 1×10^−11 M to 3×10^−5 M), and the cumulative change in ISC (inhibition) recorded. All drugs are prepared in dimethyl sulfoxide as stock solutions at a concentration of 1×10^−2 M and stored at −20° C. Eight preparations are typically run in parallel; two preparations per run incorporate amiloride and/or benzamil as positive controls. After the maximal concentration (5×10^−5 M) is administered, the lumenal bath is exchanged three times with fresh drug-free KBR solution, and the resultant ISC measured after each wash for approximately 5 minutes in duration. Reversibility is defined as the percent return to the baseline value for sodium current after the third wash. All data from the voltage clamps are collected via a computer interface and analyzed off-line.
Dose-effect relationships for all compounds are considered and analyzed by the Prism 3.0 program. IC50 values, maximal effective concentrations, and reversibility are calculated and compared to amiloride and benzamil as positive controls.
Amiloride and/or a compound 33 was also tested in this assay as a positive control. The results for the compounds of the present invention are reported as fold-enhancement values relative to amiloride.
Amiloride was also tested in this assay as a positive control. The results for the compounds of the present invention are reported as fold-enhancement values relative to amiloride.

T1 sequence (A0A8I3Q679 entry or part of it): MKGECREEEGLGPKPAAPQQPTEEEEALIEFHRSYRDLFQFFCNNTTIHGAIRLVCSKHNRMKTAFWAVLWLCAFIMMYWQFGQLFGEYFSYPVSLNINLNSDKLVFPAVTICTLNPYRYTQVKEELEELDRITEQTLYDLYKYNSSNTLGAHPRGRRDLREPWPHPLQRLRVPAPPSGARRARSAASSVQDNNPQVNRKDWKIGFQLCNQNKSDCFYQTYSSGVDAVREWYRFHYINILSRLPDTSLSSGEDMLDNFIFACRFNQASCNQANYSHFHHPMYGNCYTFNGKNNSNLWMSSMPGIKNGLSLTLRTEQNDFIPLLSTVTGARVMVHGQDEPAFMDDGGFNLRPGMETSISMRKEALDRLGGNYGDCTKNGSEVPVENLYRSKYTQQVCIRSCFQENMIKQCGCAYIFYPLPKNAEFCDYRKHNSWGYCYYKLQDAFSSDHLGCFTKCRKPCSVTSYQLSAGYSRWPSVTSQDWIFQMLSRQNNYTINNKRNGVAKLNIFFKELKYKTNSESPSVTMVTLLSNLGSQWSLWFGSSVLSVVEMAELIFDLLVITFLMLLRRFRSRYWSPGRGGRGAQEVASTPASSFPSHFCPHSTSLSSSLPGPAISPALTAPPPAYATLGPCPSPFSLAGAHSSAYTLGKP
T1 sequence (A0A8I3MKE6 entry or part of it): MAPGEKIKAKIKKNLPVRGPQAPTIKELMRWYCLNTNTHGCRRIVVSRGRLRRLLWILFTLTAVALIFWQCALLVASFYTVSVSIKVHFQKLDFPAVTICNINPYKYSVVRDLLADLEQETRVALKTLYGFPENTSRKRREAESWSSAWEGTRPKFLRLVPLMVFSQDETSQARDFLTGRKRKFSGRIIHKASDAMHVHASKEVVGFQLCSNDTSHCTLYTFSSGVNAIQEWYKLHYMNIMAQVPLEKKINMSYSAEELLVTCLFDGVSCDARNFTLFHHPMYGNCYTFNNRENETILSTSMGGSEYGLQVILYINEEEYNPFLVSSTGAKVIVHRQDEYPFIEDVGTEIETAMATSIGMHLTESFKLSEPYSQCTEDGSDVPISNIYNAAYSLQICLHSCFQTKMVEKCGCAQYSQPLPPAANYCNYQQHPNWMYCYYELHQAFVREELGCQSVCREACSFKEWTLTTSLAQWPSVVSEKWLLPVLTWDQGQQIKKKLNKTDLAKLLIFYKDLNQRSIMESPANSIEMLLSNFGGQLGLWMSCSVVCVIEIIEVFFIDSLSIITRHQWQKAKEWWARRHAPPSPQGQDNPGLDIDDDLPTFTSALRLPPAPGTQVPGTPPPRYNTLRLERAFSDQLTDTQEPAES
T1 sequence (Q95165 whole entry): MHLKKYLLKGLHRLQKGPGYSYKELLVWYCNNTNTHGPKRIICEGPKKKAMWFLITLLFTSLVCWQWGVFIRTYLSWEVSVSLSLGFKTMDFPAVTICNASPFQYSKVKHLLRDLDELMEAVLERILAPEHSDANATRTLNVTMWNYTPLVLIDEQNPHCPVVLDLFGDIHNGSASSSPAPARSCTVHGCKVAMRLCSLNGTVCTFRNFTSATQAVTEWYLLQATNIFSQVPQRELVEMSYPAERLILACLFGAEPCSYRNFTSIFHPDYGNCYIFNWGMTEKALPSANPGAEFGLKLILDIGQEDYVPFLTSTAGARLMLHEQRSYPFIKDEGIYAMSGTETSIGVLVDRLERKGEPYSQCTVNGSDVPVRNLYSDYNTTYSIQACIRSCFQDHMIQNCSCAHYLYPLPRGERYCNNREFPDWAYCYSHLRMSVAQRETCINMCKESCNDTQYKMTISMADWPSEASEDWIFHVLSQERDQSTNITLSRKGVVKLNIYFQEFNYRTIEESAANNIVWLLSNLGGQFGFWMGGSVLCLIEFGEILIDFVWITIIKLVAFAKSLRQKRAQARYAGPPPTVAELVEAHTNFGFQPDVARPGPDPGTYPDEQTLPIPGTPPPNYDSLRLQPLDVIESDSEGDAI

Take `Cl.Cl.N=C(N)NCCOc1ccc(CCCCNC(=N)NC(=O)c2nc(Cl)c(N)nc2N)cc1` [compound 9518, N-(3,5-diamino-6-chloropyrazine-2-carbonyl)-N′-{4-[4-(2-guanidinoethoxy)-phenyl]butyl}guanidine dihydrochloride]: the “Fold Amiloride*” value (number in brackets not explained) is 120.6 ± 60.8 (11) fold.
Consider `Cl.N=C(NCCCCc1ccc(O)cc1)NC(=O)c1nc(Cl)c(N)nc1N` [compound V, 4-(4-hydroxyphenyl)butylamidino-3,5-diamino-6-chloropyrazinecarboxamide hydrochloride], for which the “Fold Enhancement Over Amiloride” value (relative to amiloride (Formula I compounds, Tables 1-4)) amounted to 50.3 fold.
As for `Cl.N=C(NCCCCc1ccc(OCC(O)CO)cc1)NC(=O)c1nc(Cl)c(N)nc1N` (centres unmarked) [compound 33, 4-[4-(2,3-Dihydroxypropyloxyl)phenyl]butylamidino-3,5-diamino-6-chloropyrazinecarboxamide hydrochloride], the “Fold Amiloride*” value was 51.95 (50) fold (number in brackets not explained (presumably n), listed as drawing 52: O CH2 CHOH CH2 OH, hydrochloride); 51.95 (79) fold (number in brackets not explained (presumably n), listed as drawing 53: O CH2 CHOH CH2 OH, hydrochloride); 51.55 (79) fold (number in brackets not explained, Position=Para, hydrochloride).
